The record followed here is ChEMBL document CHEMBL1130541, “Investigation into the preferred conformation of gabapentin for interaction with its binding site on the 2 subunit of a calcium channel” (Bioorg Med Chem Lett, 1997).

The species entered for one experiment is Rattus norvegicus. The experiment in a line: Percent inhibition of binding to alpha2-delta subunit of rat calcium channel at 10 uM.
Experiment [1] in a line: Binding affinity against alpha2-delta subunit of rat calcium channel.

As usually defined, the inhibition is how much of the control response was suppressed. The term IC50 denotes the concentration that gives 50% inhibition.

Turning to `C[C@@H]1C[C@H](C)C[C@](CN)(CC(=O)O)C1`, the inhibition in the experiment listed under Rattus norvegicus stood at 38%.

Turning to `C[C@@H]1C[C@H](C)C[C@@](CN)(CC(=O)O)C1`, the IC50 in experiment [1] is 143 nM. The same measure, in the same setting: with `C[C@H]1CC[C@@](CN)(CC(=O)O)CC1` the figure was 420 nM. Turning to `C[C@H]1CC[C@](CN)(CC(=O)O)CC1`, in the experiment listed under Rattus norvegicus, the inhibition is 17%.

On to `NCC1(CC(=O)O)CCCCC1` [GABAPENTIN], for which, in experiment [1], the IC50 was […].
